Assay results taken from patent US20070270429A1, “Function Inhibitor of Effector Cell” (priority 2003, published 2007).

System: human CD8-positive memory T cell
Assay: Cell growth inhibition test of human CD8-positive memory T cell (anti-CD3 antibody stimulation, BrdU uptake)
Type: cell-based
Details: 48 hours
Procedure: A heparinized blood sample was collected from a human, healthy volunteer, and peripheral blood mononuclear cell (PBMC) was isolated by a density gradient centrifugation. Specifically, a blood sample (33 ml) 2-fold diluted with physiological saline was overlaid on a medium for hemocyte separation use (10 ml) having a specific gravity of 1.077±0.001 g/ml contained in a centrifugation tube (LymphoPrep tube (Nycomed Pharma)) and centrifuged (3000×g, 10 minutes) at room temperature. The layer containing PBMC was recovered and washed twice with PBS to isolate PBMC.
CD8-positive T cell was isolated from PBMC by a negative selection method using Human T Cell CD8 Subset Column Kit (R & D Systems, Inc). Specifically, the cells to be removed such as B cell, CD4-positive T cell, and monocyte were labeled with antibodies by adding an antibody cocktail (1 ml) (attached to the kit) to PBMC (up to 2×10^8 cells) and incubating at room temperature for 15 minutes. The cells were washed twice with a column buffer (10 ml) (attached to the kit) and suspended in said column buffer (2 ml). The cell suspension was added to Human T Cell Subset Enrichment Column (attached to the kit) which had been equilibrated in advance using the column buffer (10 ml). By eluting with the column buffer (10 ml) after incubation at room temperature for 10 minutes, the CD8-positive T cell was obtained.
CD8-positive naive T cell and CD8-positive memory T cell were obtained by fractionating the CD8-positive T cell obtained by the above-described method using VarioMACS (Miltenyl Biotec). Specifically, a marker of naive T cell, CD45RA antigen, was labeled with antibody magnetic beads by adding 20 μl of CD45RA MicroBeads (Miltenyl Biotec) to 1×10^7 cells of the CD8-positive T cell, mixing them and incubating at 6 to 12° C. for 15 minutes. The cells were washed once with MACS buffer (PBS containing 2 mM EDTA and 0.5% bovine serum albumin (BSA)) (20 ml) (attached to the kit) and re-suspended in MACS buffer (0.5 ml). The cell suspension was added to an MS column (Miltenyl Biotec) which had been set to VarioMACS and equilibrated with MACS buffer (0.5 ml) in advance, and further washed with MACS buffer (0.5 ml×3 times). This washing solutions were recovered and used in the following test as the CD45RA-negative cell, namely CD8-positive memory T cell. Also, since the CD45RA-positive cell can be recovered by taking off the MS column from VarioMACS and eluting it with MACS buffer (1.5 ml), this was used in the following test as the CD8-positive naive T cell.
The cells fractionated by the method described in the above-described (2-1) were inoculated into a 96 well plate coated with an anti-human CD3 antibody, at a cell density of 2×10^5 cells/200 μl/well. The anti-human CD3 antibody-coated 96 well plate used herein was prepared by coating it with an anti-human CD3 antibody OKT-3 (0.1 μg/ml) overnight at 4° C. The cells were cultured for 48 hours in a CO2 incubator (5% CO2, humidity 95%) kept at 37° C. The cell growth was measured using Cell Proliferation ELISA, BrdU (Colorimetric) (Roche), using uptake of 5-bromo-2-deoxyuridine (BrdU) as the index. The operation method is shown below.
After treating the cells with BrdU for a predetermined period of time, the plate was centrifuged (300×g, 10 minutes), and then turned upside down and lightly shaken to remove the labeled medium. The plate was dried (for about 15 minutes) using a hair dryer. A cell fixing and DNA denaturing solution (200 μl, attached to the kit) was added to each well and left alone for 30 minutes. After removing the cell fixing and DNA denaturing solution and further removing water, a peroxidase-labeled anti-BrdU antibody (anti-BrdU-POD reaction solution) (100 μl) (attached to the kit) was added thereto and left alone at room temperature for 90 minutes. […]

SMILES | inhibition ratio of cell growth (0.01 μM) | inhibition ratio of cell growth (0.1 μM) | inhibition ratio of cell growth (1 μM) | inhibition ratio of cell growth (10 μM)
CCCCN1C(=O)[C@@H]([C@H](O)C2CCCCC2)NC(=O)C12CCN(Cc1ccc(Cc3ccc(C(=O)O)cc3OC)cc1)CC2 [Compound (b), 4-[4-({(3R)-1-butyl-3-[(R)-cyclohexyl(hydroxy)methyl]-2,5-dioxo-1,4,9-triazaspiro[5.5]undec-9-yl}methyl)benzyl]-3-methoxybenzoic acid] | −10.6% | 5.6% | 18.3% | 53.6%
CCCCN1C(=O)[C@@H]([C@H](O)C2CCCCC2)NC(=O)C12CCN(Cc1ccc(Oc3ccc(C(=O)O)cc3OCC)cc1)CC2.Cl [Compound (c), 4-[4-({(3R)-1-butyl-3-[(R)-cyclohexyl(hydroxy)methyl]-2,5-dioxo-1,4,9-triazaspiro[5.5]undec-9-yl}methyl)phenoxy]-3-ethoxybenzoic acid hydrochloride] | 9.2% | 13.4% | 18.8% | 39.6%
